Source: PubChem BioAssay AID330 (DTP/NCI, 2004)
“And” between values parts separate entries of the source, which are not always exact repeats. Identical values can stand only once. Inconclusive results and toxic doses are left out. Rule for the calls: active = survival T/C of 150% or more; inactive = T/C below 125% in these data.

Test system: P388 leukemia ip, CD2F1 mice, survival T/C
Assay: NCI In Vivo Anticancer Drug Screen. Data for tumor model P388 Leukemia (intraperitoneal) in CD2F1 (CDF1) mice
Settings: endpoint: median survival time, higher = longer survival
Summary of the method: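 Mice carrying the transplanted tumor received test compound or vehicle. Survival was recorded in each group, and the value is the treated-group measurement divided by that of the vehicle-treated control group.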

[1] = dose: 50.0 mg/kg/injection, schedule: Q01DX005 (ip), vehicle: saline with Tween-80
[2] = dose: 100.0 mg/kg/injection, schedule: Q01DX005 (ip), vehicle: saline with Tween-80
[3] = dose: 50.0 mg/kg/injection, schedule: Q01DX009 (ip), vehicle: saline
[4] = dose: 100.0 mg/kg/injection, schedule: Q01DX009 (ip), vehicle: saline
[5] = dose: 200.0 mg/kg/injection, schedule: Q01DX009 (ip), vehicle: saline
[6] = dose: 50.0 mg/kg/injection, schedule: Q01DX009 (ip), vehicle: saline with Tween-80
[7] = dose: 100.0 mg/kg/injection, schedule: Q01DX009 (ip), vehicle: saline with Tween-80
[8] = dose: 200.0 mg/kg/injection, schedule: Q01DX009 (ip), vehicle: saline with Tween-80
[9] = dose: 200.0 mg/kg/injection, schedule: Q01DX005 (ip), vehicle: saline with Tween-80

Measured: T/C

O=S(=O)(O)c1ccc(/C2=c3\cc/c([n-]3)=C(\c3ccc(S(=O)(=O)O)cc3)c3ccc([n-]3)/C(c3ccc(S(=O)(=O)O)cc3)=c3/cc/c([n-]3)=C(\c3ccc(S(=O)(=O)O)cc3)c3ccc2[n-]3)cc1.[Zn]
inactive: dose: 0.98 mg/kg/injection, schedule: Q01DX009 (ip), vehicle: saline with Tween-80 103 % of control and 111 % of control | dose: 1.95 mg/kg/injection, schedule: Q01DX009 (ip), vehicle: saline with Tween-80 100 % of control and 104 % of control | dose: 3.9 mg/kg/injection, schedule: Q01DX009 (ip), vehicle: saline with Tween-80 99 % of control and 114 % of control | dose: 7.8 mg/kg/injection, schedule: Q01DX009 (ip), vehicle: saline with Tween-80 114 % of control | dose: 15.62 mg/kg/injection, schedule: Q01DX009 (ip), vehicle: saline with Tween-80 100 % of control and 112 % of control

O=C(CSc1nnc(-c2ccc(Cl)cc2)s1)Nc1nccs1
inactive: dose: 60.0 mg/kg/injection, schedule: Q01DX005 (ip), vehicle: saline with Tween-80 89 % of control | dose: 120.0 mg/kg/injection, schedule: Q01DX005 (ip), vehicle: saline with Tween-80 89 % of control | dose: 240.0 mg/kg/injection, schedule: Q01DX005 (ip), vehicle: saline with Tween-80 89 % of control

O=C1OC(c2ccccc2)(c2ccccc2)CC12CC(c1ccccc1)(c1ccccc1)OC2=O
inactive: [1] 91 % of control | [2] 94 % of control

COc1cc2c(cc1OC)C(c1ccc(S(=O)(=O)C(C)C)cc1)NCC2 (centres undefined)
inactive: dose: 50.0 mg/kg/injection, schedule: Q01DX009 (ip), vehicle: Klucel (hydroxypropylcellulose) (HPC) 89 % of control | dose: 100.0 mg/kg/injection, schedule: Q01DX009 (ip), vehicle: Klucel (hydroxypropylcellulose) (HPC) 101 % of control | dose: 200.0 mg/kg/injection, schedule: Q01DX009 (ip), vehicle: Klucel (hydroxypropylcellulose) (HPC) 108 % of control

CCOc1nc(N)nc(C)c1N=Nc1ccc(Cl)cc1
inactive: dose: 60.0 mg/kg/injection, schedule: Q01DX005 (ip), vehicle: Klucel + Tween-80 100 % of control | dose: 120.0 mg/kg/injection, schedule: Q01DX005 (ip), vehicle: Klucel + Tween-80 101 % of control

C/C=C1\CN2C3CC45c6cc(OC)c(OC)cc6N(C)C4(O3)C2CC1C5(COC(=O)c1cc(OC)c(OC)c(OC)c1)C(=O)OC (centres undefined)
inactive: dose: 11.5 mg/kg/injection, schedule: Q01DX005 (ip), vehicle: acid diluted with saline 98 % of control | dose: 23.0 mg/kg/injection, schedule: Q01DX005 (ip), vehicle: acid diluted with saline 100 % of control | dose: 46.0 mg/kg/injection, schedule: Q01DX005 (ip), vehicle: acid diluted with saline 110 % of control | dose: 92.0 mg/kg/injection, schedule: Q01DX005 (ip), vehicle: acid diluted with saline 100 % of control

COc1ccc(/C=C/c2nc(Nc3ccc(O)c(CN4CCCCC4)c3)c3ccccc3n2)cc1
inactive: dose: 50.0 mg/kg/injection, schedule: Q01DX009 (ip), vehicle: distilled water + alcohol 99 % of control | dose: 100.0 mg/kg/injection, schedule: Q01DX009 (ip), vehicle: distilled water + alcohol 100 % of control | dose: 200.0 mg/kg/injection, schedule: Q01DX009 (ip), vehicle: distilled water + alcohol 91 % of control

Cc1nn(C)c(NC(=O)c2ccccc2O)c1SC#N
inactive: dose: 6.25 mg/kg/injection, schedule: Q01DX005 (ip), vehicle: saline with Tween-80 93 % of control | dose: 12.5 mg/kg/injection, schedule: Q01DX005 (ip), vehicle: saline with Tween-80 93 % of control | dose: 25.0 mg/kg/injection, schedule: Q01DX005 (ip), vehicle: saline with Tween-80 93 % of control

O=c1c2ccccc2c(=O)n2n1CCC2O (centres undefined)
inactive: [3] 108 % of control | [4] 101 % of control | [5] 101 % of control

O=C(CCl)n1ccc(=O)n(C(=O)CCl)c1=O
inactive: dose: 100.0 mg/kg/injection, schedule: Q04DX002 (ip), vehicle: saline 113 % of control | dose: 200.0 mg/kg/injection, schedule: Q04DX002 (ip), vehicle: saline 100 % of control | dose: 400.0 mg/kg/injection, schedule: Q04DX002 (ip), vehicle: saline 103 % of control

Cc1nn(C(=S)S)c(C)c1N=Nc1ccccc1[N+](=O)[O-]
inactive: dose: 100.0 mg/kg/injection, schedule: Q04DX002 (ip), vehicle: Klucel (hydroxypropylcellulose) (HPC) 103 % of control | dose: 200.0 mg/kg/injection, schedule: Q04DX002 (ip), vehicle: Klucel (hydroxypropylcellulose) (HPC) 94 % of control | dose: 400.0 mg/kg/injection, schedule: Q04DX002 (ip), vehicle: Klucel (hydroxypropylcellulose) (HPC) 107 % of control

CCCCC(=O)C(=O)c1ccc(O)c(C)c1O
inactive: [6] 96 % of control | [7] 93 % of control | [8] 96 % of control

Oc1ccccc1C=NCCC[N-]CCCN=Cc1ccccc1O.[Co]
inactive: dose: 12.5 mg/kg/injection, schedule: Q01DX009 (ip), vehicle: saline 113 % of control | [4] 119 % of control

OCC1CC=CCC1CO (centres undefined)
inactive: [6] 96 % of control | [7] 101 % of control | [8] 100 % of control

COc1ccc(C2C(C#N)=C(c3ccccc3)OC(OC)(OC)C2(OC)OC)cc1 (centres undefined)
inactive: dose: 60.0 mg/kg/injection, schedule: Q01DX005 (ip), vehicle: Klucel (hydroxypropylcellulose) (HPC) 102 % of control | dose: 120.0 mg/kg/injection, schedule: Q01DX005 (ip), vehicle: Klucel (hydroxypropylcellulose) (HPC) 102 % of control | dose: 240.0 mg/kg/injection, schedule: Q01DX005 (ip), vehicle: Klucel (hydroxypropylcellulose) (HPC) 99 % of control

CCC(=O)OC1CCC2C3CCC4=CC(=O)CCC4(C)C3CCC12C (centres undefined)
inactive: [7] 95 % of control | dose: 100.0 mg/kg/injection, schedule: Q04DX003 (ip), vehicle: saline with Tween-80 95 % of control | [8] 104 % of control | dose: 200.0 mg/kg/injection, schedule: Q04DX003 (ip), vehicle: saline with Tween-80 100 % of control | dose: 400.0 mg/kg/injection, schedule: Q01DX009 (ip), vehicle: saline with Tween-80 95 % of control | dose: 400.0 mg/kg/injection, schedule: Q04DX003 (ip), vehicle: saline with Tween-80 100 % of control

CC(=O)NC1CCCCC1C1CCC(N)CC1 (centres undefined)
inactive: [1] 99 % of control | [2] 102 % of control | [9] 87 % of control

O=C(O)c1ccccc1NC(c1ccccc1)c1ccc2cccnc2c1O (centres undefined)
inactive: dose: 100.0 mg/kg/injection, schedule: Q04DX003 (ip), vehicle: Klucel (hydroxypropylcellulose) (HPC) 114 % of control and 115 % of control | dose: 200.0 mg/kg/injection, schedule: Q04DX003 (ip), vehicle: Klucel (hydroxypropylcellulose) (HPC) 113 % of control and 119 % of control

O=NNc1cnc2ccccc2n1
inactive: dose: 3.12 mg/kg/injection, schedule: Q01DX009 (ip), vehicle: water 106 % of control | dose: 6.25 mg/kg/injection, schedule: Q01DX009 (ip), vehicle: water 103 % of control | dose: 12.5 mg/kg/injection, schedule: Q01DX009 (ip), vehicle: water 106 % of control and 112 % of control | dose: 25.0 mg/kg/injection, schedule: Q01DX009 (ip), vehicle: water 120 % of control and 121 % of control | dose: 50.0 mg/kg/injection, schedule: Q01DX009 (ip), vehicle: water 113 % of control and 87 % of control

COc1cc(/C=C2\SC(=S)N(c3ccc(Cl)c(Cl)c3)C2=O)ccc1O
inactive: dose: 50.0 mg/kg/injection, schedule: Q01DX005 (ip), vehicle: Klucel (hydroxypropylcellulose) (HPC) 89 % of control | dose: 100.0 mg/kg/injection, schedule: Q01DX005 (ip), vehicle: Klucel (hydroxypropylcellulose) (HPC) 86 % of control | dose: 200.0 mg/kg/injection, schedule: Q01DX005 (ip), vehicle: Klucel (hydroxypropylcellulose) (HPC) 89 % of control

CC(=O)OCC1OC([n+]2cccc(C(N)=O)c2)C(OC(C)=O)C(OC(C)=O)C1OC(C)=O (centres undefined)
inactive: dose: 25.0 mg/kg/injection, schedule: Q01DX009 (ip), vehicle: saline 100 % of control | [3] 101 % of control | [4] 100 % of control | [5] 103 % of control

O=C1Oc2ccc3ccccc3c2CC1C(=O)c1ccc(Cl)cc1 (centres undefined)
inactive: [6] 88 % of control | [7] 88 % of control

CN(C)CCN(N)CCN(C)C
inactive: dose: 50.0 mg/kg/injection, schedule: Q01DX005 (ip), vehicle: saline 94 % of control | dose: 100.0 mg/kg/injection, schedule: Q01DX005 (ip), vehicle: saline 105 % of control | dose: 200.0 mg/kg/injection, schedule: Q01DX005 (ip), vehicle: saline 100 % of control

Nc1nc2nn(Cc3ccc(Cl)c(Cl)c3)c(-c3ccc(Cl)c(Cl)c3)c2c(=O)[nH]1
inactive: dose: 100.0 mg/kg/injection, schedule: Q01DX001 (ip), vehicle: saline with Tween-80 91 % of control | dose: 200.0 mg/kg/injection, schedule: Q01DX001 (ip), vehicle: saline with Tween-80 97 % of control | dose: 400.0 mg/kg/injection, schedule: Q01DX001 (ip), vehicle: saline with Tween-80 88 % of control

O=C(Nc1nnc(-c2ccccc2)s1)c1cc(=O)c2cc([N+](=O)[O-])ccc2o1
inactive: [1] 100 % of control | [2] 102 % of control | [9] 96 % of control
